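Dose response: 5 concentrations. Exposure: 48 h. Format: 96-well plates. Endpoint: linear interpolation; highest concentration if not reached. Abbreviation: GI50, concentration required for 50% inhibition of growth.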 The source made the active and inactive calls. No stated cut-off is given here; in the data, active = GI50 up to about 1.1 µM and inactive = higher.
Legend:
Assay in all cases: NCI-60 cell line screen, 48 h
CAKI-1 = test system: CAKI-1
DU-145 = test system: DU-145
EKVX = test system: EKVX
HT-29 = test system: HT-29
K562 = test system: K562
LOX IMVI = test system: LOX IMVI
MCF7 = test system: MCF7
MDA-N = test system: MDA-N
MOLT-4 = test system: MOLT-4
NCI-H23 = test system: NCI-H23
NCI/ADR-RES = test system: NCI/ADR-RES
OVCAR-3 = test system: OVCAR-3
RPMI-8226 = test system: RPMI-8226
SF-295 = test system: SF-295
SF-539 = test system: SF-539
SK-MEL-2 = test system: SK-MEL-2
SK-MEL-5 = test system: SK-MEL-5
TK-10 = test system: TK-10
UACC-257 = test system: UACC-257
UO-31 = test system: UO-31

Measured: GI50

Cc1c2cc[n+](C)cc2c(C)c2c1oc1ccccc12
inactive: CAKI-1 28.4 µM | DU-145 15.9 µM | EKVX 5.5 µM | HT-29 14.4 µM | K562 6.38 µM | LOX IMVI 11.4 µM | MCF7 6.37 µM | MDA-N 11 µM | MOLT-4 2.74 µM | NCI-H23 2.24 µM | NCI/ADR-RES > 100 µM | OVCAR-3 2.65 µM | RPMI-8226 4.2 µM | SF-295 1.69 µM | SF-539 2.24 µM | SK-MEL-2 4.13 µM | SK-MEL-5 3.41 µM | TK-10 31.4 µM | UACC-257 4.29 µM | UO-31 68.7 µM

Cc1ccc(CC2(OCCN(C)C)CCC(C(C)(C)C)CC2)cc1 (stereo not given)
inactive: CAKI-1 4.21 µM | DU-145 5.47 µM | EKVX 12.3 µM | HT-29 2.23 µM | K562 1.87 µM | LOX IMVI 1.63 µM | MCF7 3.08 µM | MDA-N 2.28 µM | MOLT-4 2.04 µM | NCI-H23 11.4 µM | NCI/ADR-RES 7.98 µM | OVCAR-3 11.9 µM | RPMI-8226 2.21 µM | SF-295 4.54 µM | SF-539 3.26 µM | SK-MEL-2 2.11 µM | SK-MEL-5 1.58 µM | TK-10 6.87 µM | UACC-257 2.09 µM | UO-31 5.33 µM

Cc1cc2c(cc1Cl)SC(NNc1ccc([N+](=O)[O-])cc1)=NS2(=O)=O
inactive: CAKI-1 > 10 µM | DU-145 > 10 µM | EKVX > 10 µM | HT-29 > 10 µM | K562 > 10 µM | LOX IMVI > 10 µM | MCF7 > 10 µM | MDA-N > 10 µM | MOLT-4 > 10 µM | NCI-H23 > 10 µM | NCI/ADR-RES > 10 µM | OVCAR-3 > 10 µM | RPMI-8226 > 10 µM | SF-295 > 10 µM | SF-539 > 10 µM | SK-MEL-2 > 10 µM | SK-MEL-5 > 10 µM | TK-10 > 10 µM | UACC-257 > 10 µM | UO-31 > 10 µM

Cc1ccc(Nc2nc3[nH]ccc3c(=O)[nH]2)cc1
inactive: CAKI-1 85.5 µM | DU-145 53.6 µM | EKVX 76.2 µM | HT-29 61.9 µM | K562 > 100 µM | LOX IMVI > 100 µM | MCF7 > 100 µM | MDA-N > 100 µM | MOLT-4 39.7 µM | NCI-H23 > 100 µM | NCI/ADR-RES > 100 µM | OVCAR-3 33 µM | RPMI-8226 > 100 µM | SF-295 72.9 µM | SF-539 > 100 µM | SK-MEL-2 > 100 µM | SK-MEL-5 > 100 µM | TK-10 95.7 µM | UACC-257 > 100 µM | UO-31 57.3 µM

O=c1oc2ccc(Cl)cc2cc1-c1cn2ccccc2n1
inactive: CAKI-1 15.2 µM | DU-145 > 61.9 µM | EKVX 28.8 µM | HT-29 17.7 µM | K562 > 100 µM | LOX IMVI 15 µM | MCF7 24.5 µM | MDA-N > 100 µM | MOLT-4 > 100 µM | NCI-H23 15.7 µM | NCI/ADR-RES 17.9 µM | OVCAR-3 33.7 µM | RPMI-8226 80.9 µM | SF-295 8.38 µM | SF-539 8.09 µM | SK-MEL-2 > 96.6 µM | SK-MEL-5 > 100 µM | TK-10 14.8 µM | UACC-257 > 94.4 µM | UO-31 4.72 µM

O=C(O)C1C(C(=O)O)C(C(=O)O)C1C(=O)O (stereo not given)
inactive: CAKI-1 > 100 µM | DU-145 > 100 µM | EKVX > 100 µM | HT-29 > 100 µM | K562 > 100 µM | LOX IMVI > 100 µM | MCF7 > 100 µM | MDA-N > 100 µM | MOLT-4 > 100 µM | NCI-H23 > 100 µM | NCI/ADR-RES > 100 µM | OVCAR-3 > 100 µM | RPMI-8226 > 100 µM | SF-295 > 100 µM | SF-539 > 100 µM | SK-MEL-2 > 100 µM | SK-MEL-5 > 100 µM | TK-10 > 100 µM | UACC-257 > 100 µM | UO-31 > 100 µM

O=C(Oc1cccc2cccnc12)c1cc2cc(CCl)ccc2oc1=O
inactive: CAKI-1 29.9 µM | DU-145 20.7 µM | EKVX 2.4 µM | HT-29 8.09 µM | K562 3.1 µM | LOX IMVI 25.3 µM | MCF7 3.14 µM | MDA-N 16.1 µM | MOLT-4 2.8 µM | NCI-H23 8.39 µM | NCI/ADR-RES 4.18 µM | OVCAR-3 3.68 µM | RPMI-8226 4.94 µM | SF-295 37.4 µM | SF-539 18 µM | SK-MEL-2 17.6 µM | SK-MEL-5 21.9 µM | TK-10 25.5 µM | UACC-257 6.05 µM | UO-31 9.91 µM

N#C/C(=C\c1cc(O)c(O)c(O)c1)C(N)=O
inactive: CAKI-1 > 100 µM | DU-145 97.7 µM | EKVX > 91 µM | HT-29 > 92.7 µM | K562 62.2 µM | LOX IMVI 41.3 µM | MCF7 > 39.4 µM | MDA-N > 62.4 µM | MOLT-4 52.5 µM | NCI-H23 > 100 µM | NCI/ADR-RES > 93.1 µM | OVCAR-3 > 72.8 µM | RPMI-8226 > 100 µM | SF-295 > 100 µM | SF-539 > 100 µM | SK-MEL-2 > 100 µM | SK-MEL-5 > 69.5 µM | TK-10 > 100 µM | UACC-257 > 100 µM | UO-31 > 74.1 µM

CCn1c2nc(=O)n(CCCCCCCCSC(c3ccccc3)(c3ccccc3)c3ccccc3)c(=O)c-2nc2ccccc21
inactive: CAKI-1 5.22 µM | DU-145 90.6 µM | EKVX 7.83 µM | HT-29 2.74 µM | K562 5.55 µM | LOX IMVI 53.5 µM | MCF7 6.19 µM | MDA-N 7.14 µM | MOLT-4 2.9 µM | NCI-H23 8.3 µM | NCI/ADR-RES > 100 µM | OVCAR-3 6.7 µM | RPMI-8226 4.22 µM | SF-295 20.4 µM | SF-539 64.3 µM | SK-MEL-2 8.41 µM | SK-MEL-5 3.44 µM | TK-10 43.9 µM | UACC-257 3.73 µM | UO-31 6.65 µM

CSc1nc(C)cc(Nc2ccc(O)c(CN3CCOCC3)c2)n1
inactive: CAKI-1 > 100 µM | DU-145 > 100 µM | EKVX 83 µM | HT-29 76.9 µM | K562 > 100 µM | LOX IMVI > 100 µM | MCF7 > 100 µM | MDA-N > 100 µM | MOLT-4 53.6 µM | NCI-H23 > 100 µM | NCI/ADR-RES > 100 µM | OVCAR-3 > 100 µM | RPMI-8226 > 100 µM | SF-295 > 100 µM | SF-539 > 100 µM | SK-MEL-2 > 100 µM | SK-MEL-5 65 µM | TK-10 > 100 µM | UACC-257 > 100 µM | UO-31 71 µM

CC1C[C@]2(C)C(NCCN)=Nc3ccccc3[C@@H]2N(C)c2ccccc21 (stereo not given in full)
inactive: CAKI-1 15.5 µM | DU-145 15.1 µM | EKVX 16.8 µM | HT-29 3.36 µM | K562 11.9 µM | LOX IMVI 12.7 µM | MCF7 8.18 µM | MDA-N 13.9 µM | MOLT-4 27.8 µM | NCI-H23 16.7 µM | NCI/ADR-RES 26.4 µM | OVCAR-3 11.1 µM | RPMI-8226 14.1 µM | SF-295 17.9 µM | SF-539 12.4 µM | SK-MEL-2 17.2 µM | SK-MEL-5 13.7 µM | TK-10 9.29 µM | UACC-257 5.04 µM | UO-31 11.2 µM
